Series [1] can be described thus: Acidity constant (pKa) measurement, Sirius T3 UV-metric, and speciation at pH 7.4.
The test system of series [2] is SH-SY5Y cells. Put plainly: cells. Conditions: for EC10: Homo sapiens, SH-SY5Y. The method in brief:
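Only concentrations below cytotoxic IC10 entered EC10 or ECIR1.5 derivation, with ECIR1.5 serving as the ARE benchmark in AREc32 (MCF7) cells. AhR was read in H4L7.5c2 CALUX cells. SH-SY5Y cells received 10 µM all-trans retinoic acid for differentiation and were assessed by live–dead staining; other lines by confluency.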

The subject of series [3] is ERα-UAS-bla GripTite cells. The conditions noted are these: Table S10; TKcytotoxicity-Ratio.

Molecules are shown by their SMILES. Like-named read-outs stand apart in the source and are kept apart here.
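Wherever Relative effect potency REPNOI is given: EC10 of BPA divided by EC10 of the test compound so values above 1 mean more potent.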
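Wherever Specificity ratio (SRbaseline) SRNOI is given: ratio of predicted baseline cytotoxicity IC10 to the neurite outgrowth inhibition EC10.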

As for `CC1(C)[C@H](O)C(C)(C)[C@H]1O` [t-TMCD, trans-2,2,4,4-Tetramethyl-1,3-cyclobutanediol], in series [1] (from experimental pKa), the “Negative form (pH = 7.40)” value was determined as 1e-6% and the “Neutral form (pH = 7.40)” value stood at 100%. Further, the “αneutral % (fraction of neutral species)” value in series [1] (pH 7.4, from experimental pKa) is recorded as 100%. The molecule also returned a pKa in series [1] (phosphate buffer with […] KCl, Sirius T3 titrator, pKa (Acid), experimental, this study) of 15.4. For the same molecule, in series [2] (read-out: EC10, NOI), the EC10 amounted to 0.00415 M. For the same molecule, the 10% effect concentration (EC10) in series [2] (read-out: EC10, NOI (M)) was 0.00415 M. The “Specificity ratio (SRbaseline) SRNOI” value in series [2] (against baseline cytotoxicity) was 0.24. Further, in series [2] (relative to BPA), the “Relative effect potency REPNOI” value amounted to 0.0122. For the same molecule, in series [3], the TKcytotoxicity is on record as 1.74.

As a reminder, the pKa is the pH at which an ionisable group is half protonated. A higher pKa goes with a group that holds its proton tightly. As a reminder, the EC10 is the point of the concentration-response curve where the effect stands at 10%.

For the origin of these results see publication PMC12392461, “Beyond Estrogenicity: A Comparative Assessment of Bisphenol A and Its Alternatives in In Vitro Assays Questions Safety of Replacements” (Environmental Science & Technology, 2025).
